Source: patent publication US20110220154A1, “Dental Appliance Cleanser” (priority 2008, published 2011)

System: Candida albicans
Test: in vitro suspension test representing in-use conditions
Assay type: cell-based
Details: 5 min
Procedure: The synergistic activity of the cleanser formulation was assessed using an in vitro suspension test representing in-use conditions. In-use conditions represent the actual consumer use of the cleanser (e.g., dissolved tablet concentrations, temperature, and contact time) versus Candida albicans as a relevant oral organism for the denture wearer. To 150 mL of 40° C. water at time zero, the denture cleanser was added, followed by 2 mL of a 10^8 cfu/mL test suspension. After 5 minutes, an aliquot of the solution was removed, neutralized and plated in order to evaluate the amount or log reduction of the test organism.

[H]/N=C(\N/C(=N/[H])NCCCCCCNC(=N)NC(=N)Nc1ccc(Cl)cc1)Nc1ccc(Cl)cc1 [Test Formulation 4, 1,6-di-4′-chlorophenyldiguanidohexane]
antimicrobial activity: does not demonstrate any antimicrobial activity
